For data set [1], the system named is α1β2δ receptors (oocytes injected with α1+β2+δ). The format is cell-based, rat α1, rat β2, human δ, expressed in Xenopus laevis oocytes. The following applies: oocytes injected with α1+β2+δ. An excerpt:
Plasmids with inserts encoding GABAA receptor subunit sequence for rat α1 (62), rat β2 (83), rat α2 (62), rat α5 (62), mouse α4 (37), mouse β3 (82), rat β1 (83), rat γ2S (63), human δ (12), and human ε (11) were produced by subcloning each separately into an appropriate cloning vehicle such as PCDM8, pCDNA3.1 or pGHEMHE vectors (Invitrogen, Carlsbad Calif.) using a T7 promoter and standard subcloning techniques (59). Plasmids were linearized with an appropriate restriction enzyme at a site 3′ to the insert and cRNAs were synthesized using T3 or T7 polymerase (mMessage mMachine, Ambion, Tex.). The size of the cRNA was verified and RNA was quantified by ethidium bromide staining after electrophoresis on 1% agarose gels.
The preparation, injection, and maintenance of oocytes were carried out as described previously (78). Oocytes were injected with receptor subunit cRNAs (2 to 20 ng) in the following ratios: α1:β1:γ2S, α1:β2:γ2S and α1:β1:ε1, 1:1:1; α2:β1:γ2S, α5:β1:γ2S, α4:β1:γ2S, and α4:β2:γ2S, 10:1:1; α4:β1:δ, α4:β2:δ, α4:β3δ, 10:1:10; α1:β2:δ, 1:1:10 or 1:0.5:3; α1:β1:δ, 1:1:10 or 1:0.5:3; α2:β1:δ and α2:β2:δ, 1:0.5:3; α1:β1, α1:β2, α2:β1, α2:β2, β2:γ2S and α4δ, 1:1, α4:β1, α4:β2, α4:β3, 10:1, β2δ, 1:10.
Voltage-clamp recording was carried out 1 to 3 days after injection of cRNAs. Electrodes were filled with 3 M KCl and had resistances of 0.4-4 MΩ. Oocytes were positioned in a small Perspex chamber and continuously superfused with a saline solution (100 mM NaCl, 2 mM KCl, 1.8 mM CaCl2, 10 mM HEPES, pH 7.5). Agonists and modulators were both applied in the same saline solution. Oocytes were voltage-clamped at −70 mV and macroscopic currents were recorded with a two-electrode voltage-clamp using a Warner Instruments OC-725 amplifier as described previously (79). Currents were recorded on a chart recorder or by using Axograph on a Macintosh computer.
Other subunits (α1, α2, β1, β2) were tested for co-expression with the δ subunit. […]

For the next data set, the system named is female Long Evans rats. Kind of data set: Elevated plus maze. The following applies: ethanol 0.5 g/kg.
A further data set has as its system GABAR α4 subunit. The data set can be described thus: Western blot of α4 subunit in hippocampus after steroid and ethanol administration. The class given is in vivo, rat. The protocol: Animals were administered steroids using one of two protocols: (i) For the 48 hour steroid administration protocol, animals were injected with 10 mg/kg 3α, 5β THP in oil, i.p., on a daily basis for three days and sacrificed 1-2 hour following the final injection. Controls were injected with oil vehicle. […] At this time, the capsule was removed and the animals were injected with 17 β estradiol (2 μgs/animal) in order to reset their cycle. Animals were sacrificed 24 hours later. […] In all cases, implantation and removal of capsules were performed under halothane anesthesia. […] Therefore, this study employed the 5β isomer of the steroid.
In some groups of animals, either ethanol (0.5 g/kg in saline) or saline vehicle was administered i.p. (3×, every 40 minutes) for the final 2 hours of the respective steroid administration or withdrawal paradigm. The use of multiple injections of low doses of ethanol would approximate ethanol consumption in the human more closely than would a single injection. For the 48 hour steroid administration paradigm, animals received their first ethanol injection immediately after the steroid injection, and subsequent injections at 40 minute intervals. In all cases, animals were sacrificed 40 minutes after the final ethanol injection (2 hours after the first ethanol injection and final steroid injection). All animal protocols were carried out with the approval of the Institutional Animal Care and Use Committee.
Hippocampi removed from steroid or vehicle-treated animals were homogenized, and membranes prepared as previously described (65). Following electrophoresis on 8% SDS polyacrylamide gels, membranes were transferred to a nitrocellulose membrane (Bio-Rad, Hercules, Calif.). α4 subunit levels were detected by evaluating the band density at 67 kDa after probing with a polyclonal antibody (64). Membranes were incubated for 1-2 hours at room temperature with a 1:5000 dilution of horseradish peroxidase-conjugated donkey anti-rabbit IgG (Amersham, Arlington Heights, Ill.), and visualized with enhanced chemiluminescence with varying concentrations of protein in the linear range. Immunoreactive band densities were quantified using a CCD camera (UMAX Scanner) and one-Dscan software, which uses multiple Gaussian fits to achieve accurate band density profiles.
For orientation: A western blot detects proteins with antibodies after separation by electrophoresis.

Data set [2] concerns GABAA receptors of acutely isolated CA1 hippocampal pyramidal cells. The following applies: ethanol 1-3 mM, but not higher (>10 mM); after progesterone withdrawal (ref. 67); cited from earlier work.

Procedure for female Long Evans rats: Adult, female Long Evans rats (200-250 grams at the time of testing) were used in the following example. Animals were housed in pairs under controlled conditions (14:10 light:dark cycle, 24° C.) with free access to food and water. Progesterone (P, Sigma, crystalline)-filled capsules of silicone tubing (Nalgene Co. 1/16″×⅛″ o.d., 10 mm/100 g body weight) were implanted subcutaneously in the lower back after induction of halothane anesthesia (3-6% in O2, 1 liter/minutes) in the experimental animals. […] Capsules were removed under halothane anesthesia after a 21-day P administration period, and animals tested 24 hours after the last injection (“P withdrawal”). Control animals were tested on the day of diestrus, also referred to as diestrus controls, a low hormone state, as determined by vaginal lavage. […] All animals were tested between 0730 and 1100 hour. Euthanasia was either by decapitation in the electrophysiology experiments or CO2 inhalation for the behavioral experiments following the indicated protocols.
This device consists of four 10×50 cm arms at 90° angles, with two arms enclosed by 40 cm walls, and two open arms, all elevated 50 cm above the floor. The open arms are also partially bordered by small rails extending to the proximal half of the arm, and the floor of the maze is marked with grid lines every 25 cm. […] Both number of entries and duration of time spent in the open and closed arms were tabulated, as were the total arm entries, a measure of general activity level. To be considered an open arm entry, the animal had to cross the line of the open platform with all four paws. An increase in open arm entries or time spent in the open arm versus the total time is considered to be a measure of decreased anxiety, (25).

On to `CCO` [ethanol], for which the “responses to GABA in presence of alcohol, % of control” value in data set [1] is 88-95 % of control. Also, in the data set with female Long Evans rats, the “% open arm entries, P withdrawn greater than control animals after ethanol” value is 50% and the “time in the open arm, P withdrawn relative to control animals after ethanol” value is 3 fold. In the data set on female Long Evans rats (P withdrawn animals), the “increase of % of open arm entries compared to vehicle” value is recorded as 7 fold and the “increase of time in the open arm compared to vehicle” value is recorded as “more than 20 fold”. Further, the “effect on open arm time and % open arm entries” value in the data set on female Long Evans rats (control animals) is “no significant effect”. Further, the “locomotor activity (total number of arm entries)” value in the data set with female Long Evans rats (either group) is given as “not significantly altered”. Further, in the data set on GABAR α4 subunit (2 hour ethanol administration after progesterone withdrawal), the α4 expression result was “unchanged from control levels”. Besides, the “α4 expression in hippocampus” value in the data set with GABAR α4 subunit (ethanol 0.5 g/kg i.p. across final 2 hours of 48 h 3α,5β-THP administration) was “reversed the increase”. The α4 levels entry in the data set with GABAR α4 subunit (ethanol administered without steroid) is on record as “no significant effect”. In addition, the “effect on GABA-gated current of isolated hippocampal neurons” value in data set [2] was “potentiated”.
